# Results published in paper PMC3261128, “Modulation of phosphofructokinase (PFK) from Setaria cervi, a bovine filarial parasite, by different effectors and its interaction with some antifilarials” (2011).
# How the values were obtained:
# Format in all cases: biochemical
# [1] = test system: T1, Phosphofructokinase (PFK); conditions: 5000 µM
# T1 construct: native enzyme purified from adult female worms
# [2] = target: T1, Phosphofructokinase (PFK); experiment: coupled enzyme assay (NADH oxidation), Ki and Hill plot
# [3] = target: T2, rat liver PFK (phosphofructokinase) (Rattus norvegicus, UniProt P30835); experiment: as above
# T2 construct: gene Pfkl; native enzyme partially purified from rat liver
# T2 sequence (P30835 2-780): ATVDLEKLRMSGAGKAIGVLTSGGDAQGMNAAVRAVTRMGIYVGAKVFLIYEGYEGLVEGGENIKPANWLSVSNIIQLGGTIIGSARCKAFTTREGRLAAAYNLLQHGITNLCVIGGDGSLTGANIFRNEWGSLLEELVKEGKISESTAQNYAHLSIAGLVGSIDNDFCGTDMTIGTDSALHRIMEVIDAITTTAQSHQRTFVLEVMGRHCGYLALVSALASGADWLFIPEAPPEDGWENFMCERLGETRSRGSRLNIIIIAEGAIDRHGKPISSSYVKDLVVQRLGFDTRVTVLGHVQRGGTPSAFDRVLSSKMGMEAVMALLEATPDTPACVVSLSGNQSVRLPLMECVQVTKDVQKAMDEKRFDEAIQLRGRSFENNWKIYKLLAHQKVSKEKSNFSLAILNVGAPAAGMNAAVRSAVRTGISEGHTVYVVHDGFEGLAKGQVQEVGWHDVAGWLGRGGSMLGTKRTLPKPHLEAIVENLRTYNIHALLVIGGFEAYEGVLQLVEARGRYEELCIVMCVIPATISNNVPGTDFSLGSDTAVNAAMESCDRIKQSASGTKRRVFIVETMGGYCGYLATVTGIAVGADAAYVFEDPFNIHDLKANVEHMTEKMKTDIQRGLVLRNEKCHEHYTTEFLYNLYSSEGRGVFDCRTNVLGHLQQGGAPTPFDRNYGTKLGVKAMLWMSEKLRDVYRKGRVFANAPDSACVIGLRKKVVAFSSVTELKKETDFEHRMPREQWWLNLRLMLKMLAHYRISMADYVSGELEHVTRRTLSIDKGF
# Description: coupled enzyme assay (NADH oxidation), Ki and Hill plot on rat liver PFK (phosphofructokinase) | inhibition of rat liver PFK was of the non-competitive type (Figure 5A) and the Ki value of suramin
% Residual Activity / 5 [1],Compound,Ki [2] [µM],Ki [3] [µM]
45,c1ccc([C@H]2CN3CCSC3=N2)cc1 [Levamisole],–,–
–,Cc1ccc(C(=O)Nc2ccc(S(=O)(=O)O)c3cc(S(=O)(=O)O)cc(S(=O)(=O)O)c23)cc1NC(=O)c1cccc(NC(=O)Nc2cccc(C(=O)Nc3cc(C(=O)Nc4ccc(S(=O)(=O)O)c5cc(S(=O)(=O)O)cc(S(=O)(=O)O)c45)ccc3C)c2)c1 [suramin],0.0011 ± 0.0001,0.04 ± 0.001
